Source: publication PMC7006766, “Coumarins from Magydaris pastinacea as inhibitors of the tumour-associated carbonic anhydrases IX and XII: isolation, biological studies and in silico evaluation” (Journal of Enzyme Inhibition and Medicinal Chemistry, 2020)
Like-named read-outs stand apart in the source and are kept apart here.

Assays:
hCA I = biological target: T1, hCA I (Homo sapiens, UniProt P00915); type: biochemical
T1 construct: made in house

hCA II = biological target: T2, hCA II (Homo sapiens, UniProt P00918); type: biochemical
T2 construct: made in house

hCA IX = biological target: T3, hCA IX (Homo sapiens, UniProt Q16790); type: biochemical; settings: for Ki: stopped flow, 6 h preincubation, mean of three assays
T3 construct: made in house

HeLa cells = assay: MTT cytotoxic assay in cancer HeLa cells; type: cell-based; settings: Homo sapiens, read-out: IC50 (concentration of compound that reduces the cell viability to 50%)
Procedure: Human carcinoma HeLa cell line was obtained from the American Type Culture Collection (ATCC, Rockville, MD). Cells were grown in Dulbecco’s modified Eagle’s medium (DMEM) with high glucose, supplemented with 10% foetal calf serum (FCS), penicillin (100 units/mL)–streptomycin (100 μg/mL), and 2 mM L-glutamine in a 5% CO2 incubator at 37 °C. Subcultures of the HeLa cells were grown in T-75 culture flasks and passaged with a trypsin-EDTA solution. Cell culture materials were purchased from Invitrogen (Milan, Italy).
The in vitro cytotoxic effect of coumarins 5, 9–12, 15 was evaluated in cancer HeLa cells by the MTT (3-(4,5-dimethylthiazol-2-yl)-2,5-diphenyltetrazolium bromide) reduction assay. Cancer cells were seeded in 96-well plates (density of 3 × 10^4 cells/mL) in 100 μL of medium and cultured for 48 h (80% of cell confluence). Cells were subsequently incubated for 48 h with various concentrations (0.1–100 μM, dissolved in DMSO) of coumarins in culture medium (treated cells). Treated cells were compared for viability to untreated cells (control cells) and vehicle-treated cells (incubated for 48 h with an equivalent volume of DMSO; the maximal final concentration was 1%). After the cell medium removing and washing, cells were subjected to the MTT test[35]. After incubation (3 h), colour development was measured at 570 nm with an Infinite 200 auto microplate reader (Infinite 200, Tecan, Austria); the absorbance is proportional to the number of viable cells. Two independent experiments were performed.

hCA XII [1] = biological target: T4, hCA XII (Homo sapiens, UniProt O43570); assay: biochemical; settings: stopped flow, 6 h preincubation, mean of three assays
T4 sequence (O43570 25-354): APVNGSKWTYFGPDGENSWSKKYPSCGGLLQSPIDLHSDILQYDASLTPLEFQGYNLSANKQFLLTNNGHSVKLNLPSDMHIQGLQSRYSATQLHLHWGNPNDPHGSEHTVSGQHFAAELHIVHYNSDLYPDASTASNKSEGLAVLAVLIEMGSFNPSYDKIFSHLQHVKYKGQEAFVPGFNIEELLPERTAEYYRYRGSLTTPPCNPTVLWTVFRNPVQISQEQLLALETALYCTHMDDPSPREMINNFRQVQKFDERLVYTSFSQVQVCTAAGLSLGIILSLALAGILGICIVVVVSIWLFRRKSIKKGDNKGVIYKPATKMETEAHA

hCA XII [2] = biological target: T4, hCA XII
4T1 cells = settings: encapsulated in nanoliposomes vs free compound; cited from earlier work
[3] = stopped flow, 6 h preincubation, mean of three assays, read-out: Ki hCA I
[4] = stopped flow, 6 h preincubation, mean of three assays, read-out: Ki hCA II

T1 sequence (P00915 whole entry): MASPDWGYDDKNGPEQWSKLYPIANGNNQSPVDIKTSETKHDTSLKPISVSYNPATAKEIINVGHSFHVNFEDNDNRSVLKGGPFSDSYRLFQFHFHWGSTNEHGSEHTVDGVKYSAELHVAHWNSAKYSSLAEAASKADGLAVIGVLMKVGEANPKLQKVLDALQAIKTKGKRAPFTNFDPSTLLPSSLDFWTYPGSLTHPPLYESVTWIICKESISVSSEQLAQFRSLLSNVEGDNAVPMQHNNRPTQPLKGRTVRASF

Ki ratio XII/IX (selectivity index hCA IX over hCA XII) (hCA IX)	Structure (SMILES)	Ki (hCA I; [3]) [µM]	Ki (hCA II; [4]) [µM]	Ki (hCA IX) [µM]	IC50 (HeLa cells; HeLa, 48 h) [µM]	Ki (hCA XII [1]) [µM]	Ki ratio I/XII (hCA XII [2]; selectivity over off-target CA I/II)	change of antiproliferative effect against 4T1 cells when encapsulated in nanoliposomes (4T1 cells)	Ki ratio IX/XII (hCA XII [2]; selectivity for hCA XII)	Ki (hCA I) [µM]	Ki (hCA II) [µM]	IC50 (HeLa cells; HeLa cells, MTT, measured at 48 h, normoxic) [µM]
	COc1ccc2ccc(=O)oc2c1CC=C(C)C [Compound 12, osthol]	> 10	> 10	2.47	98	0.0745						
	COc1c2ccoc2c(OC/C=C(\C)CO)c2oc(=O)ccc12 [Compound 5, E-5-methoxy-trichoclin]	> 10	> 10	1.5	> 100	0.0635						
	CC(C)=CCC/C(C)=C/CC/C(C)=C/COc1ccc2ccc(=O)oc2c1 [Compound 15, umbelliprenin]	> 10	> 10	0.266	75	0.0058	> 1724	increased by five folds				
	COc1ccc2ccc(=O)oc2c1C[C@H](OC(C)=O)C(C)(C)O [Compound 14, 2′-acetoxy-3′-hydroxy-osthol]	> 10	> 10	> 10		0.291			> 34			
	CC(C)(O)[C@H](O)COc1c2occc2cc2ccc(=O)oc12 [Compound 9, (-)-heraclenol]	> 10	> 10	0.0275	> 100	0.814						
	COc1cc2ccc(=O)oc2c2c1O[C@H](C(C)(C)O)C2 [Compound 11, Magydarin]	> 10	> 10	0.151	> 100	0.623						
	COc1c2ccoc2cc2oc(=O)ccc12 [Compound 1, begapten]	> 10	> 10	1.95		0.855						
> 5	COc1ccc2ccc(=O)oc2c1C[C@@H]1OC1(C)C [Compound 13, meranzin]	> 10	> 10	1.89		> 10						
	CC1(C)O[C@@H]1COc1c2occc2cc2ccc(=O)oc12 [Compound 8, heraclenin]			0.163						> 10	> 10	
	COc1c2occc2cc2ccc(=O)oc12 [Compound 2, xanthotoxin]	> 10	> 10	0.195		0.876						
	COc1c2ccoc2c(OC)c2oc(=O)ccc12 [Compound 3, isopimpinellin]	> 10	> 10	0.16		0.59						
	COc1c2ccoc2c(OCC=C(C)C)c2oc(=O)ccc12 [Compound 7, phellopterin]	> 10	> 10	0.202		0.787						
	C/C(=C\COc1c2occc2cc2ccc(=O)oc12)CO [Compound 4, E-trichoclin]	> 10	> 10	2.34		0.55						
	CC(C)=CCOc1c2occc2cc2ccc(=O)oc12 [Compound 6, imperatorin]	> 10	> 10	0.221		0.833						
> 52	CC(=O)O[C@@H](COc1c2occc2cc2ccc(=O)oc12)C(C)(C)O [Compound 10, (+)-heraclenol acetate]	> 10	> 10	0.192		> 10						> 100
